Assay results as given in PubChem BioAssay (NCI).
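96-well plates; 48 h exposure; 5 concentrations. Endpoints by linear interpolation between flanking doses. Not reached: highest tested concentration assigned. GI50 = concentration required for 50% inhibition of growth. TGI: total growth inhibition.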 Where a SMILES comes first, the peptide text is derived from it. [ ]: non-standard residue; d: D form. ξ: configuration not given here. ξLac(3-iPr) = CC(C)CC(O)C(=O)O; NMeV = CN[CH](C(=O)O)C(C)C; NMeA = CN[CH](C)C(=O)O; βAla = NCCC(=O)O

Key:
Experiment in all cases: NCI anticancer screen, dose series, 48 h
EKVX NSCLC = tested on: EKVX NSCLC
MDA-MB-231 breast = tested on: MDA-MB-231 breast
LOX IMVI melanoma = tested on: LOX IMVI melanoma
SR leukemia = tested on: SR leukemia
HOP-92 NSCLC = tested on: HOP-92 NSCLC
SF-268 CNS = tested on: SF-268 CNS
RXF 393 renal = tested on: RXF 393 renal
NCI-H460 lung = tested on: NCI-H460 lung
OVCAR-5 ovarian = tested on: OVCAR-5 ovarian
UACC-257 melanoma = tested on: UACC-257 melanoma
MDA-MB-435 = tested on: MDA-MB-435
HCC-2998 colon = tested on: HCC-2998 colon
MDA-N = tested on: MDA-N
T-47D breast = tested on: T-47D breast

Compound	GI50 (EKVX NSCLC) [nM]	TGI (EKVX NSCLC) [µM]	GI50 (MDA-MB-231 breast) [nM]	TGI (MDA-MB-231 breast) [µM]	GI50 (LOX IMVI melanoma) [nM]	TGI (LOX IMVI melanoma) [µM]	GI50 (SR leukemia) [nM]	TGI (SR leukemia) [µM]	GI50 (HOP-92 NSCLC) [nM]	TGI (HOP-92 NSCLC) [µM]	GI50 (SF-268 CNS) [µM]	TGI (SF-268 CNS) [µM]	TGI (RXF 393 renal) [µM]	TGI (NCI-H460 lung) [µM]	TGI (OVCAR-5 ovarian) [µM]	TGI (UACC-257 melanoma) [µM]	TGI (MDA-MB-435) [µM]	TGI (HCC-2998 colon) [µM]	TGI (MDA-N) [µM]	TGI (T-47D breast) [µM]
N#C/C(=C\c1ccc(Br)cc1)n1nnc2cc(Cl)c(Cl)cc21	2830	> 100	2310	8	1710	3.3	1360	> 100	1140	3.79	3.84	> 100								
CN=C(N)c1ccc(N=C(N)c2ccc(C(N)=Nc3ccc(C(N)=NC)cc3)cc2)cc1						> 100				> 100		> 100	> 100	> 100	> 100	> 100				
CO/N=C\c1cc(O)c(O)c(/C=N/OC)c1		> 100		> 100		> 100		> 100		> 100		> 100	> 100	> 100	> 100	> 100	> 100	> 100	> 100	> 100
O=C(N/N=C/c1ccc([N+](=O)[O-])cc1)Nc1ccc(Br)cc1		> 100		> 100		> 100		> 100		> 100		> 100	> 100	> 100	> 100	> 100	> 100	90.9	> 100	> 100
C[N+](C)(C)c1cc2c(nn1)Nc1ccccc1S2		29.9		67		43.8				48.5		> 100	> 100	48.8	58.2	62.6	51.9	71.5	50.3	28.2
CCC(C)C1NC(=O)C2CCCN2C(=O)C(CC(C)C)OC(=O)CCNC(=O)C(C)N(C)C(=O)C(C(C)C)N(C)C1=O (stereo unspecified) (cyclo([ξLac(3-iPr)]PI[NMeV][NMeA][βAla]); configuration not given here)		> 100		> 100				> 56.5		> 100		80.9	98	> 100	> 100	41.8	13.5	14.9	17.3	38.9
O=C(c1ccccc1)C1C(c2ccccc2)N1S(=O)(=O)c1ccccc1 (stereo unspecified)		> 100		> 100		> 100						> 100	> 100		> 100		> 100	> 100	> 100	> 100
Cc1ccc2c(ccc(/C=C\c3cc(C)c4cccnc4c3O)[n+]2C)c1		75				56.2		25.4				47.6		18	> 100	28.4		11.6		
CCOC(=O)c1c(C)n(C)c2c1cc(O)c1[nH]c3c(c12)CCCC3		45.1		43.9		29.7				16.8		21.8		42.9	65.1	31.7	29.6		34.3	48.4
Cc1nc2[nH]ncn2c(=O)c1CCCl		> 10		> 10		> 10		> 10				> 10	> 10	> 10	> 10		> 10	> 10	> 10	> 10
Clc1ccc(C[P+]2(c3ccccc3)CCCCC2)cc1		> 100				> 100		> 100					> 100	> 100	> 100	89.5		> 100		
C[C@]12CC[C@@H]3c4ccc(O)cc4CC[C@H]3[C@@H]1CC[C@@H]2OC(=O)CCc1ccccc1		25.4		33.4		39.4				36.8		35.8	33.6	42.6	> 100	35.2	45.1	36.6	52.9	37
CCN(CC)c1ccc2nc3ccc(N=Nc4c(O)ccc5ccccc45)cc3[n+](-c3ccccc3)c2c1		> 100		> 100				> 100		> 100		> 100	> 100		> 100	> 100	> 100		> 100	> 100
COc1cc(C(=O)CC2OC(=O)C(Cl)=C2Cl)ccc1Cl (stereo unspecified)		> 100				> 100		> 100		> 100		> 100	> 100	> 100	> 100	> 100		> 100		
OCc1cc2ccncc2c2c1[nH]c1ccccc12		> 100				16.3		20		82.5		34.2	9.77	19.5	26.7	51.3		22.1		
Clc1ccc(OCc2nnc3sc(-c4ccc(-c5ccc(Cl)cc5Cl)o4)nn23)cc1		> 100		> 100		> 100		> 100		> 100		> 100	54	> 100	> 100	> 100	> 100		> 100	> 100
CC1(C)N=C(N)N=C(N)N1c1cccc(C(=O)Nc2ccc(S(=O)(=O)F)cc2)c1		> 100		> 100		> 100				> 100		> 100	> 100	> 100	> 100	> 100	> 100		> 100	> 100
Cc1ccc(C2COc3cc(O)c(O)cc3C2)cc1 (stereo unspecified)		59.8										49.3	26.2	236	244	69.6		172		
O=C1/C(=C/c2ccc(Oc3ccccc3)cc2)N=C(c2ccccc2)N1c1ccc(S(=O)(=O)Nc2nccs2)cc1		> 100		> 100		70.5		25		99.7		> 100	93.4	> 100	> 100	92.5	6.86	6.87	15.8	77.1
O=C1c2ccccc2C(=O)c2c(Nc3cc4c5c(ccc6c7ccc8c9c(cc(Nc%10cccc%11c%10C(=O)c%10ccccc%10C%11=O)c(c3c56)c97)-c3ccccc3C8=O)C(=O)c3ccccc3-4)cccc21		> 100		> 100		> 100		> 100		> 100		75.2	> 100		> 100	> 100	> 100		> 100	> 100
O=C(O)CCC(N=NNc1ccc(-c2nc3ccccc3[nH]2)cc1)C(=O)O (stereo unspecified)		> 100		> 100		> 100		> 100		> 100			> 100	> 100	> 100	> 100	> 100		> 100	> 100
CC(=O)n1cc(OP(=O)(Oc2ccccc2)Oc2ccccc2)c2ccccc21				86.4		62.1		72.4				81.3		50.8		77.2	50.3		> 100	80.2
Oc1c(Br)cc(/C=C/c2cccc(/C=C/c3cc(Br)c(O)c(Br)c3)n2)cc1Br		34		49.4		28.8		18.9		29.6		32.9		11.3	32.3	37.2	46.5	18.8	39.6	31.4
CC(NC(=O)c1ccc(NP(=O)(OCc2ccc([N+](=O)[O-])o2)N(C)CCCCCl)cc1)c1ccc(OCC2CCCCC2)c(C(N)=O)c1 (stereo unspecified)				35		27		40.7		20.6		36.1	31	72.3	73.7	26.6	33.6	24.2	62.4	25.5
